Experimental data taken from BigSolDB 2.1.

C=C(C)[C@@H]1CC[C@]2(C(=O)O)CC[C@]3(C)[C@H](CC[C@@H]4[C@@]5(C)CCC(=O)C(C)(C)[C@@H]5CC[C@]43C)[C@@H]12
solubility (mole fraction)
Details	278.15 K	283.15 K	288.15 K	293.15 K	298.15 K	303.15 K	308.15 K	313.15 K	318.15 K
in 2-methoxyethanol	0.00863	0.00923	0.00969	0.0103	0.0108	0.0117	0.0127	0.0137	0.0149
in 2-propoxyethanol	0.0239	0.0248	0.025	0.0264	0.0274	0.0288	0.03	0.0314	0.0331
in ethanol	0.00376	0.00399	0.00454	0.00503	0.00566	0.00617	0.00693	0.00757	0.00848
in isopropanol	0.00531	0.00564	0.00651	0.0075	0.00865	0.00968	0.0114	0.0138	0.0158
in methanol	0.00129	0.00136	0.00146	0.00157	0.00171	0.00192	0.00211	0.00234	0.0027
in n-propanol	0.00728	0.00762	0.00827	0.00914	0.0104	0.0116	0.0131	0.0144	0.0163
